Data: US10646600B2, “HER2 polypeptides useful for imaging and monitoring tumors and cancers” (GE HEALTHCARE LIMITED, priority 2013, dated 2020)
Read-outs that look alike come from different tables or passages of the source.

Key:
SKOV-3 xenografts = assay: PET-CT imaging and kinetic modeling, SKOV-3 xenografts; assay type: in vivo, mice
Description: […] […] To investigate response to HSP90 inhibition, SKOV-3 xenograft-bearing mice were treated with 50 mg/kg NVP-AUY922 or equivalent volume of vehicle (˜5 μL/g body weight; 10% DMSO and 5% Tween-20 in PBS) q.d. i.p. for three days. 24 h after the last treatment, animals were used for PET imaging.
Mice were anesthetized through isoflurane inhalation and scanned on a dedicated small animal PET-CT scanner (Siemens Multimodality Inveon, Erlangen, Germany). Low dose CT scans were first acquired (80 kVp, 0.5 mA, 220 degree rotation, 600 ms per degree exposure time, 80 μm reconstruction pixel size) for PET attenuation correction and to obtain an anatomical reference. PET images were acquired following a bolus i.v. injection of approximately 3.7 MBq [^18F]GE-226 in the tail vein. Dynamic emission scans were acquired in list mode format over 60 minutes. The acquired data were sorted into 0.5-mm sinogram bins and 19 time frames for image reconstruction by filtered back projection (4×15 seconds and 4×60 seconds followed by 11×300 seconds). The Siemens Inveon Research Workplace software was used for visualization of radiotracer uptake. 30 to 60-minute cumulative images of the dynamic data were employed to define 3-dimensional (3D) regions of interest (ROI). Arterial input function was estimated by drawing ROIs over the center of the heart cavity using 0.25 to 2 minutes of cumulative images. The count densities were averaged for all ROIs at each time point to obtain time versus radioactivity curves (TAC). Tumor TACs were normalized to injected dose measured by a VDC-304 dose calibrator (Veenstra Instruments, Joure, Netherlands) and normalized uptake was expressed as percentage injected dose per mL tissue (NUV; % ID/mL). Normalized uptake of radiotracer at 60 minutes (NUV60) was used for comparisons. For qualitative image visualization, cumulative images of the dynamic data (30 to 60 min) were also iteratively reconstructed (OSEM3D).
Kinetic analysis of PET data was performed applying a standard two-tissue irreversible compartmental model to fit each tumor TAC with the corresponding image-derived plasma TAC as input function (IF) to estimate K1 (mL/cm^3/min), k2, (1/min) and k3 (1/min) and the blood vascular component Vb (mL blood/mL tissue; unitless). The irreversible uptake rate Ki (mL/cm^3/min) was computed as K1×k3/(k2+k3). To estimate the kinetic parameters the measured tumor TAC (tTAC) was modeled as tTAC(t)=(1−Vb)h(t)⊗IF(t)+VbIF(t) with h(t) indicating the unknown tissue impulse function and ⊗ the convolution operator. The parameter vector p=[K1, k2, k3, Vb] was estimated with the standard Weighted Non-Linear Least Squares (WNLLS) by minimizing the Weighted Residual Sum of Squares (WRSS) function

MCF7-HER2 = assay: Biodistribution, MCF7-HER2 tumor; assay type: in vivo, mice; conditions: 60 min
From the text: Mice were sacrificed at different time points by exsanguination.

rhesus HER2 = assay: Surface Plasmon Resonance, rhesus HER2-ECD-Fc; assay type: binding
Description: To characterize the affinity of [^19F]GE-226[SEQ ID NO 1] to HER2 protein, Surface Plasmon Resonance studies were conducted. Human, rhesus and rat HER2-ECD-Fc (SINO Biological, Beijing, China, Cat. Nr: 10004-H02H, 90020-K02H, and 80079-R02H), as well as human HER2-ECD-Fc-6×His (R&D Systems, Minneapolis, Minn., Cat. Nr: 1129-ER) and p95HER2 ECD-Fc-6×His (Syngene, Cambridge, United Kingdom) were diluted with 50 mM sodium acetate pH 4.5 (Biacore (GE Healthcare, Buckinghamshire, UK) coupling buffer) to a final concentration of 10 μg/mL. Antigen coupling to Biacore sensor chip CMS (Cat. Nr: BR-1005-30) was done according to amine coupling protocol from the instrument manual (Syngene). HBS-EP buffer (10 mM HEPES pH 7.4, 150 mM NaCl, 3 mM EDTA and 0.005% surfactant P20; GE Healthcare, Little Chalfont, United Kingdom, Cat. Nr: BR-1006-69) was used as running buffer and as solvent for the substances. The affinity studies were performed using a Biacore T100 (GE Healthcare). [^19F]GE-226 was diluted in HBS-EP buffer to 50 nM, 25 nM, 12.5 nM, 6.25 nM, 3.125 nM, 1.56 nM, 0.78 nM, 0.39 nM, 0.195 nM, 0.097 nM, 0.049 nM and 0 nM. The flow cells of the first chip comprised of blank, human HER2-ECD-Fc-6×His, p95HER2-ECD-Fc-6×His batch I and p95HER2-ECD-Fc-6×His batch II. The flow cells on the second chip contained blank, human HER2-ECD-Fc, rhesus HER2-ECD-Fc and rat HER2 ECD-Fc. The immobilization of the proteins was validated with protein-A (Sigma-Aldrich, St. Louis, Mo., Cat. Nr: P6031) and anti-human IgG antibody (Perkin Elmer, Waltham, Mass., Cat. Nr: NEF803001EA). [^19F]GE-226[SEQ ID NO 1] was pumped in duplicate over cells in randomized order for 60 sec at 50 μL/min flow rate followed by 120 sec of HBS-EP to monitor dissociation. This was followed by regeneration of the chip with 50 mM sodium hydroxide for 30 sec at 30 μL/min flow rate followed by 60 sec run of HBS-EP to stabilize the surface. Kinetic calculations were performed using Langmuir 1:1 binding model and simultaneous calculation of association and dissociation phase.

| Substance | NUV60 (SKOV-3 xenografts; PET, 60 minutes) [% ID/mL] | tumor tracer uptake at 2 h (SKOV-3 xenografts; SKOV-3 xenografts, 2 h versus 1 h) | Ki (net irreversible uptake rate) (SKOV-3 xenografts; two-tissue irreversible compartmental model) [mL/cm^3/min] | Tissue uptake, MCF7-HER2 (MCF7-HER2) [% ID/g tissue] | NUV60 of [18F]GE-226 in blocked tumors (SKOV-3 xenografts; 30 mg/kg [19F]GE-226 i.v. 20 minutes prior to PET scan) [% ID/mL] | Off-rate koff (rhesus HER2; Rhesus HER2) [s⁻¹] | On-rate kon (rhesus HER2; Rhesus HER2, Langmuir 1:1 binding model) [M⁻¹ s⁻¹] | Kd (rhesus HER2; Rhesus HER2, read-out: Affinity KD) [nM] | binding to rhesus HER2 (words) (rhesus HER2; listed as GE-226) | binding to rhesus HER2 (words) (rhesus HER2; listed as [^19F]-GE-226) | Kd (rhesus HER2; rhesus HER2, text, read-out: KD) [nM] |
| --- | --- | --- | --- | --- | --- | --- | --- | --- | --- | --- | --- |
| [^18F]GE-226: HER2-binding 18F-radiolabelled Affibody molecule ZHER2:2891 | 18.7±2.4 | higher at 2 h | 0.036±0.0065 | 11.06 ± 3.31 |  |  |  |  |  |  |  |
| [^19F]GE-226: cold unlabeled non-radioactive 19F analogue of the tracer, used for SPR and blocking |  |  |  |  | 7.1±1.6 | 0.000425 | 6.37e+06 | 0.0667 | binds with high affinity | high affinity binding | 0.067 |
